We go through 31 compounds from ChEMBL document CHEMBL3867469, “Discovery of phenoxyindazoles and phenylthioindazoles as RORγ inverse agonists” (Bioorg Med Chem Lett, 2016).

Data set [1] can be described thus: Photocytotoxicity against human neonatal keratinocytes assessed as decrease in cell viability preincubated for 30 mins followed by 5 J/cm2 UV light irradiation for 15 mins measured after 24 hrs by neutral red dye based assay. The format is toxicity. As to conditions: neonatal keratinocyte.
The next data set is described as follows: physchem. Particulars: buffer, pH 6.5.
In data set [2] the target is T1, Nuclear receptor ROR-gamma (Homo sapiens, UniProt P51449).
T1 sequence (P51449 whole entry): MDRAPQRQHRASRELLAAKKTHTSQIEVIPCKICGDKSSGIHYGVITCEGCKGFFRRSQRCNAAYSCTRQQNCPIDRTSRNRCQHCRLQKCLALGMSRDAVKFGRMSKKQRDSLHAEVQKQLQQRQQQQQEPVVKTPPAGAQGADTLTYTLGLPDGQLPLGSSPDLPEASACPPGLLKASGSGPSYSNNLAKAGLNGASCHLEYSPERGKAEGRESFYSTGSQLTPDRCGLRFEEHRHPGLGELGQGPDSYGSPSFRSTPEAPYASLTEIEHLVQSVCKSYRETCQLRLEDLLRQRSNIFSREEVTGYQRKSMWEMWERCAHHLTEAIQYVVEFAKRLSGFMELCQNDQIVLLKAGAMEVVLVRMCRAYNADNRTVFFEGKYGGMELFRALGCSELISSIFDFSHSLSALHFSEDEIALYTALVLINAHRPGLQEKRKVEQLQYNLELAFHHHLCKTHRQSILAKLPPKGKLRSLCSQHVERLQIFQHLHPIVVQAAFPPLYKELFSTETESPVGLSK
Description: Inverse agonist activity at GAL4 DBD-fused RORgammat LBD (unknown origin) expressed in HG5LN cells after 18 hrs by luciferase reporter gene assay

For data set [3], the target named is T2, Retinoic acid receptor gamma (Homo sapiens, UniProt P13631).
T2 sequence (P13631 whole entry): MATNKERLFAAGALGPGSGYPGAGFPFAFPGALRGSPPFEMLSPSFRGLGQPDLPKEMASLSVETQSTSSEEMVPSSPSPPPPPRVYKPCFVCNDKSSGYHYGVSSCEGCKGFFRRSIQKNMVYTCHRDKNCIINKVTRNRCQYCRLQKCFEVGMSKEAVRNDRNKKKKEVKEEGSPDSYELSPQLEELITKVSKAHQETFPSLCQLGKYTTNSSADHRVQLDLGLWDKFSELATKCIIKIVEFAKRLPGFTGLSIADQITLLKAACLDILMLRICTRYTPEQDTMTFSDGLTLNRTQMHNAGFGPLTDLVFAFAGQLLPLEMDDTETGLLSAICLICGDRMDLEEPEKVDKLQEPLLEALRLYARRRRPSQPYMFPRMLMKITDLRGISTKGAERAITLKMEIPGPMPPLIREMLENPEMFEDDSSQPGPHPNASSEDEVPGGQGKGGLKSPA
Description: Inverse agonist activity at GAL4 DBD-fused RARgamma LBD (unknown origin) expressed in human HG5LN cells after 18 hrs by luciferase reporter gene assay

A short description of the next data set: in vitro. As to conditions: human, neonatal keratinocytes.

Description for in vitro: Photocytotoxicity against human neonatal keratinocytes assessed as decrease in cell viability by measuring ratio of IC50 in presence of UV to IC50 in absence of UV after 30 mins by neutral red dye based assay

In general, logD refers to lipophilicity at a set pH, counting ionised and neutral species. Lower therefore signals a more hydrophilic compound. The term IC50 denotes the midpoint of a concentration-inhibition curve. Take `O=C(O)c1ccc(-c2nn(C(=O)c3c(Cl)cccc3Cl)c3ccccc23)cc1`: in data set [1], the Activity result is “Toxic”. The compound also yielded a logD in “physchem” of 2.4. The IC50 in data set [2] amounted to 60 nM; in data set [3] it was 1.3 µM.
Regarding `O=C(O)c1ccc(-n2nc(Oc3c(Cl)cccc3Cl)c3c(F)cccc32)cc1`, in “physchem”, the logD was 2.8. Besides, the values for the IC50 in data set [2] and in data set [3] were 260 nM and 0.8 µM, respectively. Further, in the data set “in vitro”, the selectivity ratio at 0.5 h was greater than 90.
Compound `O=C(O)c1ccc(-n2nc(Oc3c(Cl)cccc3Cl)c3cccc(F)c32)cc1` yielded a logD in the data set “physchem” of 2.8. Also, the IC50 amounted to 88 nM in data set [2] and 7.6 µM in data set [3]. Also, the selectivity ratio at 0.5 h in “in vitro” stood at 30.
On the same counts, the results for `O=C(O)[C@H]1CC[C@H](n2nc(Oc3c(Cl)cccc3Cl)c3ccccc32)CC1` are 3.1, greater than 10000 nM, greater than 10 µM and 41.
The like results for `Cc1cc(C(=O)O)ccc1-n1nc(Oc2c(Cl)cccc2Cl)c2ccccc21` were, in that order, 3, 3600 nM, 6.2 µM and 41.
In the case of `Cc1cccc(C)c1Sc1nn(-c2ccc(C(=O)O)cc2)c2ccc(C(=O)N(C)C)cc12`, the Activity result in data set [1] is given as “Toxic”. Moreover, the log distribution coefficient (logD) in the data set “physchem” stood at 1.6. For the same compound, the IC50 in data set [2] was 370 nM; in data set [3], greater than 10 µM.
`Cc1cccc2c(Oc3c(Cl)cccc3Cl)nn(-c3ccc(C(=O)O)cc3)c12` showed a logD in “physchem” of 2.6. In addition, the IC50 was greater than 10000 nM in data set [2] and greater than 10 µM in data set [3].
Take `Cc1cccc2c1c(Oc1c(Cl)cccc1Cl)nn2-c1ccc(C(=O)O)cc1`: the logD in “physchem” stood at 3.6. Also, the IC50 is 820 nM in data set [2] and 1.1 µM in data set [3]. Further, the selectivity ratio at 0.5 h in “in vitro” worked out at 19.
In the data set “physchem”, `O=C(O)c1cc(F)c(-n2nc(Oc3c(Cl)cccc3Cl)c3ccccc32)c(F)c1` displayed a logD of 2.9. In addition, the IC50 in data set [2] is 310 nM; in data set [3] it was greater than 10 µM. For the same compound, in “in vitro”, the selectivity ratio at 0.5 h stood at 16.
On the same counts, the results for `O=C(O)[C@H]1CC[C@@H](n2nc(Oc3c(Cl)cccc3Cl)c3ccccc32)CC1` are 3.4, greater than 10000 nM, greater than 10 µM and 108.
On the same counts, the results for `O=C(O)c1ccc(-n2nc(Oc3c(Cl)cccc3Cl)c3cccnc32)cc1` are 2.3, 1200 nM, 3.8 µM and 190.
For `CN(C)C(=O)c1ccc2c(c1)c(S(=O)(=O)c1c(Cl)cccc1Cl)nn2-c1ccc(C(=O)O)cc1`, in data set [1], the Activity entry is “Toxic”. The logD in the data set “physchem” is 0.9. Moreover, the IC50 in data set [2] is greater than 10000 nM; in data set [3], greater than 10 µM.
On the same counts, the results for `CN(C)C(=O)c1ccc2c(c1)c(Sc1cccc(Cl)c1Cl)nn2-c1ccc(C(=O)O)cc1` are “Toxic”, 2.1, 5900 nM and greater than 10 µM.
On the same counts, the results for `CN(C)C(=O)c1ccc2c(c1)c(Sc1c(F)cccc1Cl)nn2-c1ccc(C(=O)O)cc1` are “Toxic”, 1.4, 5000 nM and greater than 10 µM.
With `CN1CCN(C(=O)c2ccc3c(c2)c(Sc2c(Cl)cccc2Cl)nn3-c2ccc(C(=O)O)cc2)CC1`, in “physchem”, the logD was determined as 1. In addition, the half-inhibitory concentration (IC50) was 9200 nM in data set [2] and 7.7 µM in data set [3].
For `CN(C)C(=O)c1ccc2c(c1)c(Sc1ccc(Cl)cc1Cl)nn2-c1ccc(C(=O)O)cc1`, the Activity entry in data set [1] is on record as “Toxic”. Moreover, in the data set “physchem”, the logD was 2.2. In addition, the figures for the IC50 in data set [2] and in data set [3] were greater than 10000 nM and greater than 10 µM, respectively.
With `O=C(O)c1ccc(-n2nc(Sc3c(Cl)cccc3Cl)c3ccccc32)cc1`, the Activity entry in data set [1] is “Toxic”. The compound also yielded a logD in “physchem” of 2.9. Moreover, the values for the IC50 in data set [2] and in data set [3] were 2500 nM and 4.4 µM, respectively.
`O=C(O)c1ccc(-n2nc(Oc3c(Cl)cccc3Cl)c3ccccc32)cn1` showed a logD in “physchem” of 3.7. In addition, the IC50 in data set [2] was greater than 10000 nM; in data set [3] it was greater than 10 µM. Also, the selectivity ratio at 0.5 h in “in vitro” was 30.
For `CS(=O)(=O)c1ccc2c(c1)c(Oc1c(Cl)cccc1Cl)nn2-c1ccc(C(=O)O)cc1`, the pH-dependent lipophilicity (logD) in the data set “physchem” amounted to 1.7. Moreover, the IC50 in data set [2] is greater than 10000 nM; in data set [3] it was 4.5 µM. The selectivity ratio at 0.5 h in “in vitro” came out at 87.
The like results for `O=C(O)c1ccc(-n2nc(Oc3c(Cl)cccc3Cl)c3ccccc32)c(F)c1` were, in that order, 2.8, 240 nM, greater than 10 µM and 32.
As for `O=C(O)c1ccc(-n2nc(Sc3c(Cl)cccc3Cl)c3cc(C(=O)N4CCOCC4)ccc32)cc1`, the logD in the data set “physchem” came out at 1.5. In addition, the figures for the half-maximal inhibitory concentration (IC50) in data set [2] and in data set [3] were 6000 nM and 4.2 µM, respectively.
With `CN(C)C(=O)c1ccc2c(c1)c([S+]([O-])c1c(Cl)cccc1Cl)nn2-c1ccc(C(=O)O)cc1` (stereo not given), the Activity entry in data set [1] is reported as “Toxic”. The same compound yielded a logD in “physchem” of 0.4. Also, the IC50 in data set [2] is greater than 10000 nM; in data set [3] it was greater than 10 µM.
In the case of `O=C(O)c1ccc(-n2nc(Oc3c(Cl)cccc3Cl)c3ncccc32)cc1`, in “physchem”, the pH-dependent lipophilicity (logD) was found to be 1.3. In addition, the IC50 in data set [2] came to 2100 nM; in data set [3], 6.8 µM. Besides, the selectivity ratio at 0.5 h in “in vitro” was determined as 11.
On to `CN(C)C(=O)c1ccc2c(c1)c(Sc1c(Cl)cccc1Cl)nn2-c1ccc(C(=O)O)cc1`, for which the Activity result in data set [1] is on record as “Toxic”. In addition, in “physchem”, the logD amounted to 1.6. Besides, the IC50 in data set [2] was 590 nM; in data set [3], greater than 10 µM.
In the case of `O=C(O)c1ccc(-n2nc(Oc3c(Cl)cccc3Cl)c3ccccc32)nc1`, in the data set “physchem”, the log distribution coefficient (logD) stood at 2.9. Also, the IC50 amounted to 1100 nM in data set [2] and 1.9 µM in data set [3]. Also, in the data set “in vitro”, the selectivity ratio at 0.5 h is 90.
On the same counts, the results for `O=C(O)c1ccc(-n2nc(Oc3c(Cl)cccc3Cl)c3ccccc32)cc1` are 2.8, 140 nM, 1.4 µM and greater than 62.
The like results for `CCc1nn(C)c(CC)c1Oc1nn(-c2ccc(C(=O)O)cc2)c2ccccc12` were, in that order, 1.6, 4800 nM, 9.1 µM and 121.
Regarding `N#Cc1ccc2c(c1)c(Oc1c(Cl)cccc1Cl)nn2-c1ccc(C(=O)O)cc1`, the logD in “physchem” came out at 2.6. Further, the IC50 in data set [2] is greater than 10000 nM; in data set [3], 1.4 µM. Also, the selectivity ratio at 0.5 h in “in vitro” is 138.
Take `O=C(O)c1ccc(-n2nc(Sc3c(Cl)cccc3Cl)c3cc(C(=O)N4CC(F)(F)C4)ccc32)cc1`: the logD in “physchem” was determined as 2.3. The values for the half-inhibitory concentration (IC50) in data set [2] and in data set [3] were 720 nM and greater than 10 µM, respectively.
In turn, `Clc1cccc(Cl)c1Oc1n[nH]c2ccccc12` returned a logD in “physchem” of 4.9. For the same compound, the values for the half-maximal inhibitory concentration (IC50) in data set [2] and in data set [3] were greater than 10000 nM and 5.7 µM, respectively. Besides, in “in vitro”, the selectivity ratio at 0.5 h was 1.6.
On the same counts, the results for `CN(C)C(=O)c1ccc2c(Oc3c(Cl)cccc3Cl)nn(-c3ccc(C(=O)O)cc3)c2c1` are 1.8, greater than 10000 nM, greater than 10 µM and 18.
